Data: patent US20040266723A1, “Antiviral agents for treatment of Flaviviridae infections” (priority 2000, published 2004)
Like-named read-outs stand apart in the source and are kept apart here.

Tests used:
BVDV [1] = assay: BVDV real time RT-PCR antiviral assay in MDBK cells; type: cell-based, Bovine viral diarrhea virus (BVDV), strain NADL; conditions: for virus production / viral RNA versus negative control / max log reduction Viral Load: MDBK cells; for virus production / viral RNA versus negative control: MOI 0.02, 22 hours, real time RT-PCR; for Selectivity Index (24 hrs/24 hrs) CC50/EC90: MDBK CC50 24 hrs / antiviral EC90 24 hrs
Procedure: As one illustration of this method, in the case of BVDV in MDBK cells, in a first step, viral RNA is isolated from 140 μL of the cell culture supernatant by means of a commercially available column (Viral RNA extraction kit, QiaGen, CA). The viral RNA is then eluted from the column to yield a total volume of 60 μL, and subsequently amplified with a quantitative RT-PCR protocol using a suitable primer for the BVDV NADL strain. A quenched fluorescent probe molecule is hybridized to the BVDV DNA, which then undergoes exonucleolytic degradation resulting in a detectable fluorescent signal. Therefore, the RT-PCR amplified DNA was detected in real time by monitoring the presence of fluorescence signals. The TaqMan probe molecule (5′ 6-fam-[…]-tamara 3′ [Sequence ID No. 7] and primers (sense: 5′-[…]-3′ [Sequence ID No. 8]; and antisense: 5′-[…]-3′ [Sequence ID No. 9]) were designed with the aid of the Primer Express software (PE-Applied Biosystems) to be complementary to the BVDV NADL NS5B region. A total of 10 μL of RNA was analyzed in a 50 μL RT-PCR mixture. Reagents and conditions used in quantitative PCR were purchased from PE-Applied Biosystems. The standard curve that was created using the undiluted inoculum virus ranged from 6000 plaque forming units (PFU) to 0.6 PFU per RT-PCR mixture.
Maldin-Darby bovine kidney (MDBK) cells were grown and maintained in a modified eagle medium (DMEM/F12; GibcoBRL), supplemented with 10% heat inactivated horse serum at 37° C. in a humidified, 5% CO2, incubator.
Bovine viral diarrhea virus (BVDV), strain NADL, causes a cytopathogenic effect (CPE) after infection of these cells.
Cells that were not treated with a test compound were considered a negative control, while ribavirin served as a positive control. Viral RNA was extracted and analyzed by real time RT-PCR.
Controls were Ribavirin and the polyoxymetalate HPA-023 in these experiments.

MDBK cells = assay: Cytotoxicity in MDBK cells; type: cell-based
Text: (§1) Cytotoxicity testing can be carried out according to standard methods. MDBK, PBM, HepG2, Huh7 and Vero cells were used. […]. […] Afterwards the plates containing the dye are read at 490 nm. Each assay was done in triplicate. Such methodologies are well described and available from the manufacturer (Promega).

PBMC = assay: in vitro; type: cell-based; conditions: 7 days
Text: as §1

CEM = assay: Cytotoxicity in CEM cells; conditions: read-out: CEM 7 days CC50; 7 days
[2] = Cytotoxicity in MDBK cells; type: cell-based
Text: as §1

in vitro = type: cell-based
Text: as §1

human IMPDH = assay: IMPDH inhibition (Ki); type: biochemical
[3] = Cytotoxicity in CEM cells; conditions: human, CEM cells
[4] = Cytotoxicity in HepG2 cells; type: cell-based; conditions: human
Procedure: (§2) Cytotoxicity testing can be carried out according to standard methods. MDBK, PBM, HepG2, Huh7 and Vero cells were used. […]. After a three day-incubation, cell viability and mitochondrial activity are measured by adding the MTS-dye (Promega), followed by a 3 hours incubation. Afterwards the plates containing the dye are read at 490 nm. Each assay was done in triplicate. Such methodologies are well described and available from the manufacturer (Promega).

[5] = Cytotoxicity in Vero cells; type: cell-based; conditions: African green monkey
Procedure: as §2

BVDV [6] = assay: BVDV real time RT-PCR antiviral assay in MDBK cells; type: cell-based, Bovine viral diarrhea virus (BVDV), strain NADL; conditions: dose-response, 24 hours post-infection
IMPDH = conditions: literature (WO 95/22538); cited from earlier work
[7] = renal transplanted patients, oral; cited from earlier work
[8] = Toxicity of C2-MAD in Balb/c mice (body weight); type: in vivo; conditions: Balb/c mice, 10, 30 and 60 mg/kg/day, ten day treatment, versus water
Text: The results of this screening are illustrated in FIG. 4.

[9] = BVDV, 24 hrs, read-out: Antiviral (24 hrs) EC90
[10] = BVDV real time RT-PCR, after 22 hours, tested at 40 μM
[11] = 24 hrs, read-out: MDBK (24 hrs) CC50
[12] = Table 2, 3 days, read-out: MDBK (3 Days) CC50
[13] = Bovine viral diarrhea virus isolates and strains, MDBK, 24 h, read-out: Antiviral (24 hrs) EC90
[14] = Bovine viral diarrhea virus isolates and strains, MDBK, 22 h
[15] = 7 days, read-out: PBMC 7 days CC50

COc1c(C)c2c(c(O)c1CC=O)C(=O)OC2 [C2-MPAld]
EC90 (BVDV [1]; [9]): > 100 µM | virus production / viral RNA versus negative control (BVDV [1]): non-active | CC50 (MDBK cells): > 100 µM

COc1c(C)c2c(c(O)c1CCO)C(=O)OC2 [C2-MPAlcohol, 6-(2-hydroxyethyl)-7-hydroxy-5-methoxy-4-methylphthalan-1-one]
max log reduction Viral Load (BVDV [1]; [10]): 1.96 (40 μM) log | EC90 (BVDV [1]; BVDV real time RT-PCR, after 22 hours, 1-log reduction in viral production, read-out: EC90): 40 µM | EC90 (BVDV [1]; [9]): 40 µM | CC50 (MDBK cells; [11]): > 100 µM | CC50 (MDBK cells; Table 1, 3 days, read-out: MDBK 3 days CC50): 7 µM | CC50 (MDBK cells; [12]): 7 µM | CC50 (PBMC): > 100 µM | CC50 (CEM): 91 µM

NC(=O)c1csc(C2OC(COP(=O)(O)CP(=O)(O)OCC3OC(n4cnc5c(N)ncnc54)C(O)C3O)C(O)C2O)n1 (stereo not drawn) [β-CH2-TAD]
max log reduction Viral Load (BVDV [1]; [10]): 0.94 (40 μM) log | EC90 (BVDV [1]; [13]): > 100 µM | Selectivity Index (24 hrs/24 hrs) CC50/EC90 (BVDV [1]): 1 | CC50 at 24 h ([2]; bovine, MDBK cells): > 100 µM | CC50 at 3 days ([2]; bovine, MDBK cells, Table 1): 70 µM | CC50 at 3 days ([2]; bovine, MDBK cells, Table 2): 70 µM | CC50 at 7 days (in vitro): > 100 µM | Ki (human IMPDH; Table 2, read-out: IMPDH Ki): 0.11 µM | CC50 at 7 days [3]: 47.8 µM

NC(=O)c1cccc(C2OC(CO)C(O)C2O)c1 (stereo not drawn) [Benzamide Riboside]
max log reduction Viral Load (BVDV [1]; [10]): >2 (40 μM) log | EC90 (BVDV [1]; [14]): 3 µM | EC90 (BVDV [1]; [13]): 3 µM | Selectivity Index (24 hrs/24 hrs) CC50/EC90 (BVDV [1]): 4 | CC50 at 24 h ([2]; bovine, MDBK cells): 13 µM | CC50 at 3 days ([2]; bovine, MDBK cells, Table 1): 4 µM | CC50 at 3 days ([2]; bovine, MDBK cells, Table 2): 3 µM | CC50 (in vitro): < 17 µM | CC50 at 3 days ([4]; HepG2 cells): 8 µM | Ki (human IMPDH; Table 2, read-out: IMPDH Ki): 0.66 µM

NC(=O)c1ncn([C@@H]2O[C@H](CO)[C@@H](O)[C@H]2O)n1 [Ribavirin]
max log reduction Viral Load (BVDV [1]; [10]): >2 (40 μM) log | EC50 (BVDV [1]; [14]): 0.7 µM | EC90 (BVDV [1]; [14]): 5 µM | EC90 (BVDV [1]; [13]): 2 µM | Selectivity Index (24 hrs/24 hrs) CC50/EC90 (BVDV [1]): 5 | virus production / viral RNA versus negative control (BVDV [1]): almost complete absence of viral RNA | CC50 at 24 h [2]: > 100 µM | CC50 at 3 days ([2]; Table 1): 4 µM | CC50 at 3 days ([2]; Table 2): 5 µM | CC50 at 3 days [5]: > 100 µM | CC50 at 7 days (in vitro; [15]): > 100 µM | CC50 at 3 days [4]: 80 µM | Ki (human IMPDH; Table 2, read-out: IMPDH Ki): 0.2 µM | intracellular viral RNA reduction, relative effectiveness (FIG. 9) (BVDV [6]): more effective than C2-MAD | CC50 at 7 days [3]: 75 µM

NC(=O)c1ncn([C@H]2O[C@@H](CO)[C@H](O)[C@@H]2O)n1 [L-Ribavirin]
EC90 (BVDV [1]; [9]): > 100 µM | CC50 (MDBK cells; [11]): > 100 µM | CC50 (MDBK cells; [12]): > 100 µM

NC(=O)c1ncn([C@@H]2O[C@H](CO)[C@@H](O)[C@H]2O)c1O [Mizoribine]
EC90 (BVDV [1]; Bovine viral diarrhea virus isolates and strains, MDBK): > 100 µM | EC90 (BVDV [1]; [13]): > 100 µM | Selectivity Index (24 hrs/24 hrs) CC50/EC90 (BVDV [1]): 1 | virus production / viral RNA versus negative control (BVDV [1]): non-active | CC50 at 24 h [2]: > 100 µM | CC50 at 3 days ([2]; Table 2): > 100 µM | Ki (human IMPDH; human IMPDH, read-out: Ki): 0.004 µM

N#Cc1cncc([C@@H]2O[C@H](CO)[C@@H](O)[C@H]2O)c1
melting point: 169 to 171 °C

COc1c(C)c2c(c(O)c1C/C=C(\C)CCC(=O)O)C(=O)OC2 [Mycophenolic Acid (MPA), Mycophenolic Acid]
max log reduction Viral Load (BVDV [1]; [10]): >2 (40 μM) log | EC90 (BVDV [1]; [14]): 1 µM | EC90 (BVDV [1]; [13]): < 1 µM | virus production / viral RNA versus negative control (BVDV [1]): almost complete absence of viral RNA | CC50 at 24 h ([2]; bovine, MDBK cells): > 100 µM | CC50 at 3 days ([2]; bovine, MDBK cells, Table 1): 2 µM | CC50 at 3 days ([2]; bovine, MDBK cells, Table 2): 2 µM | CC50 at 7 days (in vitro): 75.4 µM | IC50 (IMPDH): […] | CC50 at 7 days [3]: 0.05 µM

NC(=O)c1cccc([C@@H]2O[C@H](COP(=O)(O)CP(=O)(O)OCC3OC(n4cnc5c(N)ncnc54)C(F)C3O)[C@@H](O)[C@H]2O)c1 (stereo partly drawn) [F-ara-CH2-BAD]
EC90 (BVDV [1]; [9]): > 100 µM | virus production / viral RNA versus negative control (BVDV [1]): non-active | CC50 (MDBK cells; [11]): > 100 µM | CC50 (MDBK cells; [12]): > 100 µM | Ki (human IMPDH; Table 2, read-out: IMPDH Ki): 175 µM

COC(=O)CC/C(C)=C/Cc1c(O)c2c(c(C)c1OC)COC2=O [MPA-O-Me]
max log reduction Viral Load (BVDV [1]; BVDV real time RT-PCR, after 22 hours, tested at 100 μM): 3.32 (100 μM) log | EC90 (BVDV [1]; [9]): < 1 µM | CC50 (MDBK cells; [11]): > 100 µM | CC50 (MDBK cells; [12]): 0.4 µM | Ki (human IMPDH; Table 2, read-out: IMPDH Ki): 0.5 µM

COc1c(C)c2c(c(O)c1C/C=C(\C)CCCOP(=O)(O)CP(=O)(O)OC[C@H]1O[C@@H](n3cnc4c(N)ncnc43)[C@H](O)[C@@H]1O)C(=O)OC2 [C6-MAD]
EC90 (BVDV [1]; [9]): > 100 µM | virus production / viral RNA versus negative control (BVDV [1]): non-active | CC50 (MDBK cells): > 100 µM | Ki (human IMPDH; Table 2, read-out: IMPDH Ki): 0.3 µM

NC(=O)c1csc([C@@H]2O[C@H](CO)[C@@H](O)[C@H]2O)n1 [Tiazofurin]
max log reduction Viral Load (BVDV [1]; [10]): >2 (40 μM) log | EC90 (BVDV [1]; [14]): 30 µM | EC90 (BVDV [1]; [13]): 7 µM | Selectivity Index (24 hrs/24 hrs) CC50/EC90 (BVDV [1]): 14 | virus production / viral RNA versus negative control (BVDV [1]): almost complete absence of viral RNA | CC50 at 24 h [2]: > 100 µM | CC50 at 3 days ([2]; Table 1): 25 µM | CC50 at 3 days ([2]; Table 2): 25 µM | CC50 at 7 days (in vitro; [15]): 79.5 µM | CC50 at 3 days [4]: > 100 µM | Ki (human IMPDH; Table 2, read-out: IMPDH Ki): 0.11 µM | CC50 at 7 days [3]: 73.4 µM

Nc1nc2c(ncn2[C@@H]2O[C@H](CO)[C@@H](O)[C@H]2O)c(=O)[nH]1 [guanosine]
virus production / viral RNA versus negative control (BVDV [1]): non-active

COc1c(C)c2c(c(O)c1C/C=C(\C)CCC(=O)OCCN1CCOCC1)C(=O)OC2 [MMF, mycophenolate mofetil]
MPA Tmax [7]: 48 min

NC(=O)c1cncc([C@H]2O[C@H](CO)[C@@H](O)[C@H]2O)c1
melting point: 210 to 212 °C

COc1c(C)c2c(c(O)c1C/C=C(\C)C=O)C(=O)OC2 [C4-MPAld]
EC90 (BVDV [1]; [9]): > 100 µM | virus production / viral RNA versus negative control (BVDV [1]): non-active | CC50 (MDBK cells): > 100 µM

COc1c(C)c2c(c(O)c1CCOP(=O)(O)CP(=O)(O)OC[C@H]1O[C@@H](n3cnc4c(N)ncnc43)C(O)[C@H]1O)C(=O)OC2 (stereo partly drawn) [C2-MAD]
max log reduction Viral Load (BVDV [1]; [10]): 1.9 (40 μM) log | CC50 at 24 h [2]: > 100 µM | CC50 at 3 days ([2]; Table 1): 50 µM | CC50 at 3 days ([2]; Table 2): 9 µM | CC50 at 7 days (in vitro; [15]): 45.9 µM | toxic effects: weight gain or loss (FIG. 4) [8]: does not contribute to significant weight gain or loss | CC50 at 7 days [3]: 17.7 µM
